Source: patent publication US20020183384A1, “Methods of treating nuclear factor-kappa B mediated diseases and disorders” (priority 2001, published 2002)

Tested on: NF-κB mediated transcription
Test: NF-κB driven β-lactamase reporter assay in ECV-304 NF-κB.βlaZ cells (AURORA CCF2 fluorescence)
Type: cell-based, human
Conditions: 10 μM compound; ECV-304 NF-κB.βlaZ cells stimulated with 10 ng/mL TNF-α or 100 pg/mL IL-1β, 6 hours at 37° C.; inhibition of maximum blue/green ratio
In short: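 ECV-304 cells (clone 1E8) stably carrying a β-lactamase reporter driven by 5 HIV-1 NF-κB sites, plated in M-199 with 2% FBS, compound at 10 μM final. CCF2 read at 395 nm excitation, blue 460 nm/green 530 nm emission ratio; IC50 from dose-response curve.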

Structure (SMILES) | Percent Inhibition at 10 μM [%]
CC(C)c1cc(C(C)C)c(CC(=O)NS(=O)(=O)Oc2c(C(C)C)cc(NC(=O)[C@@H](N)CCCCN)cc2C(C)C)c(C(C)C)c1 [Example 197, [2-(2,4,6-Triisopropyl-phenyl)-acetyl]-sulfamic acid 4-((S)-2,6-diamino-hexanoylamino)-2,6-diisopropyl-phenyl ester; compound with generic inorganic neutral component] | <10
CC(C)c1cccc(C(C)C)c1OS(=O)(=O)NC(=O)NCC1(c2ccc(N(C)C)cc2)CCCC1 [Example 217, Sulfamic acid, [[[[1-[4-(dimethylamino)phenyl]cyclopenty]methyl]-amino]carbonyl]-2,6-bis(1-methylethyl)phenyl ester] | 37.08

Same assay, conditions: Homo sapiens, ECV-304, 6 h, 10 μM compound; ECV-304 NF-κB.βlaZ cells stimulated with 10 ng/mL TNF-α or 100 pg/mL IL-1β, 6 hours at 37° C.; inhibition of maximum blue/green ratio; read-out: Percent Inhibition at 10 μM

Structure (SMILES) | inhibition at 10 µM [%]
COc1cc(C(C)C)c(OS(=O)(=O)NC(=O)Cc2c(C(C)C)cc(C(C)C)cc2C(C)C)c(C(C)C)c1 [Example 192, [(2,4,6-Triisopropyl-phenyl)-acetyl]-sulfamic acid 2,6-diisopropyl-4-methoxy-phenyl ester] | 63.9
CC(C)c1cc(C(C)C)c(CC(=O)NS(=O)(=O)Oc2c(Cl)cccc2Cl)c(C(C)C)c1 [Example 193, [(2,4,6-Triisopropyl-phenyl)-acetyl]-sulfamic acid 2,6-dichloro-phenyl ester] | 38.3
CCOC(=O)CCNC(=O)Nc1cc(C(C)C)c(OS(=O)(=O)NC(=O)Cc2c(C(C)C)cc(C(C)C)cc2C(C)C)c(C(C)C)c1 [Example 194, 3-[3-(3,5-Diisopropyl-4-{[(2,4,6-triisopropyl-phenyl)-acetyl]-sulfamoyloxy}-phenyl)-ureido]-propionic acid ethyl ester] | 89.8
CC(C)c1cc(C(C)C)c(CC(=O)NS(=O)(=O)Oc2c(C(C)C)cc(NC(=O)C(CCCCNC(=O)OC(C)(C)C)NC(=O)OC(C)(C)C)cc2C(C)C)c(C(C)C)c1 (stereo not shown) [Example 195, [5-tert-Butoxycarbonylamino-5-(3,5-diisopropyl-4-{[(2,4,6-triisopropyl-phenyl)-acetyl]sulfamoyloxy}-phenylcarbamoyl)-pentyl]-carbamic acid tert-butyl ester] | 91.8
CC(=O)Nc1cc(C(C)C)c(OS(=O)(=O)NC(=O)Cc2c(C(C)C)cc(C(C)C)cc2C(C)C)c(C(C)C)c1 [Example 196, [(2,4,6-Triisopropyl-phenyl)-acetyl]-sulfamic acid 4-acetylamino-2,6-diisopropyl-phenyl ester] | 73.1
CC(C)c1cc(C(C)C)c(CC(=O)NS(=O)(=O)Oc2c(C(C)C)cc(NC(=O)CNC(=O)OC(C)(C)C)cc2C(C)C)c(C(C)C)c1 [Example 198, [(3,5-Diisopropyl-4-{[(2,4,6-triisopropyl-phenyl)-acetyl]sulfamoyloxy}-phenylcarbamoyl)-methyl]-carbamic acid tert-butyl ester] | 75.8
CCCCCCCCCCCCOS(=O)(=O)NC(=O)Cc1c(C(C)C)cc(C(C)C)cc1C(C)C [Example 199, [(2,4,6-Triisopropyl-phenyl)-acetyl]-sulfamic acid dodecyl ester] | 50.7
CC(C)c1cc(C(C)C)c(CC(=O)NS(=O)(=O)Oc2c(C(C)C)cc(NC(=O)CN)cc2C(C)C)c(C(C)C)c1 [Example 200, [(2,4,6-Triisopropyl-phenyl)-acetyl]-sulfamic acid 4-(2-amino-acetylamino)-2,6-diisopropyl-phenyl ester] | 72.7
CSCC[C@H](N)C(=O)Nc1cc(C(C)C)c(OS(=O)(=O)NC(=O)Cc2c(C(C)C)cc(C(C)C)cc2C(C)C)c(C(C)C)c1 [Example 201, [2-(2,4,6-Triisopropyl-phenyl)-acetyl]-sulfamic acid 4-((S)-2-amino-4-methylsulfanyl-butyrylamino)-2,6-diisopropyl-phenyl ester] | 87.1
CC(C)c1cc(C(C)(C)O)cc(C(C)C)c1CC(=O)NS(=O)(=O)Oc1c(C(C)C)cccc1C(C)C [Example 202, {[4-(1-Hydroxy-1-methyl-ethyl)-2,6-diisopropyl-phenyl]-acetyl}-sulfamic acid 2,6-diisopropyl-phenyl ester] | 25.4
CC(C)c1cc(C(C)C)c(CC(=O)NS(=O)(=O)Oc2c(C(C)C)cc(Br)cc2C(C)C)c(C(C)C)c1 [Example 203, [(2,4,6-Triisopropyl-phenyl)-acetyl]-sulfamic acid 4-bromo-2,6-diisopropyl-phenyl ester] | 52.2
CC(C)c1cc(C(C)C)c(CC(=O)NS(=O)(=O)Oc2c(C(C)C)cc(NC(=O)C(N)Cc3c[nH]c4ccccc34)cc2C(C)C)c(C(C)C)c1 (stereo not shown) [Example 204, [(2,4,6-Triisopropyl-phenyl)-acetyl]-sulfamic acid 4-[2-amino-3-(1H-indol-3-yl)-propionylamino]-2,6-diisopropyl-phenyl ester] | 70
CC(C)c1cc(C(C)C)c(CC(=O)NS(=O)(=O)Oc2c(C(C)C)cc(OCCCN(C)C)cc2C(C)C)c(C(C)C)c1 [Example 205, [(2,4,6-Triisopropyl-phenyl)-acetyl]-sulfamic acid 4-(3-dimethylamino-propoxy)-2,6-diisopropyl-phenyl ester] | 11.7
CC(C)c1cc(C(C)C)c(CC(=O)NS(=O)(=O)Oc2c(C(C)C)cc(NC(=O)[C@@H](C)N)cc2C(C)C)c(C(C)C)c1 [Example 206, [2-(2,4,6-Triisopropyl-phenyl)-acetyl]-sulfamic acid 4-((R)-2-amino-propionylamino)-2,6-diisopropyl-phenyl ester; compound with trifluoro-acetic acid] | 47.9
CC(C)c1cc(C(C)C)c(CC(=O)NS(=O)(=O)Oc2c(C(C)C)cc(NC(=O)C(C)(C)N)cc2C(C)C)c(C(C)C)c1 [Example 207, [(2,4,6-Triisopropyl-phenyl)-acetyl]-sulfamic acid 4-(2-amino-2-methyl-propionylamino)-2,6-diisopropyl-phenyl ester] | 60.3
CC(C)c1cc(C(C)C)c(CC(=O)NS(=O)(=O)Oc2c(C(C)C)cc(OCCCN)cc2C(C)C)c(C(C)C)c1 [Example 208, [2-(2,4,6-Triisopropyl-phenyl)-acetyl]-sulfamic acid 4-(3-amino-propoxy)-2,6-diisopropyl-phenyl ester] | 22.4
CC(C)c1cc(C(C)C)c(CC(=O)NS(=O)(=O)Oc2c(C(C)C)cc(SC#N)cc2C(C)C)c(C(C)C)c1 [Example 209, [(2,4,6-Triisopropyl-phenyl)-acetyl]-sulfamic acid 2,6-diisopropyl-4-thiocyanato-phenyl ester] | 56.8
Cc1cc(C(C)C)c(OS(=O)(=O)NC(=O)Cc2c(C(C)C)cc(C(C)C)cc2C(C)C)c(C(C)C)c1 [Example 210, [(2,4,6-Triisopropyl-phenyl)-acetyl]-sulfamic acid 2,6-diisopropyl-4-methyl-phenyl ester] | 52.5
CC(C)c1cccc(C(C)C)c1OS(=O)(=O)NC(=O)C1(c2ccc(N(C)C)cc2)CCCC1 [Example 211, [1-(4-Dimethylamino-phenyl)-cyclopentanecarbonyl]-sulfamic acid 2,6-diisopropyl-phenyl ester] | 24.6
CC(C)c1cc(C(C)C)c(CC(=O)NS(=O)(=O)Oc2c(C(C)C)cc(C#N)cc2C(C)C)c(C(C)C)c1 [Example 212, [(2,4,6-Triisopropyl-phenyl)-acetyl]-sulfamic acid 4-cyano-2,6-diisopropyl-phenyl ester] | 60.2
CC(C)c1cccc(C(C)C)c1OS(=O)(=O)NC(=O)C1(c2ccc([N+](=O)[O-])cc2)CCCC1 [Example 213, [1-(4-Nitro-phenyl)-cyclopentanecarbonyl]-sulfamic acid 2,6-diisopropyl-phenyl ester] | 19.7
CSCCC(NC(=O)OC(C)(C)C)C(=O)Nc1cc(C(C)C)c(OS(=O)(=O)NC(=O)Cc2c(C(C)C)cc(C(C)C)cc2C(C)C)c(C(C)C)c1 (stereo not shown) [Example 214, [1-(3,5-Diisopropyl-4-{[(2,4,6-triisopropyl-phenyl)-acetyl]sulfamoyloxy}-phenylcarbamoyl)-3-methylsulfanyl-propyl]-carbamic acid tert-butyl ester] | 71.7
CC(C)c1cc(C(C)C)c(CC(=O)NS(=O)(=O)Oc2c(C(C)C)cc(NC(=O)Nc3c(C(C)C)cccc3C(C)C)cc2C(C)C)c(C(C)C)c1 [Example 215, [(2,4,6-Triisopropyl-phenyl)-acetyl]-sulfamic acid 4-[3-(2,6-diisopropyl-phenyl)-ureido]-2,6-diisopropyl-phenyl ester] | 74.7
CC(C)C[C@H](N)C(=O)Nc1cc(C(C)C)c(OS(=O)(=O)NC(=O)Cc2c(C(C)C)cc(C(C)C)cc2C(C)C)c(C(C)C)c1 [Example 216, [2-(2,4,6-Triisopropyl-phenyl)-acetyl]-sulfamic acid 4-((S)-2-amino-4-methyl-pentanoylamino)-2,6-diisopropyl-phenyl ester; compound with trifluoro-acetic acid] | 65.4
CC(C)c1cc(C(C)C)c(CC(=O)NS(=O)(=O)Oc2c(C(C)C)cc(NC(=O)Nc3ccccc3)cc2C(C)C)c(C(C)C)c1 [Example 218, [(2,4,6-Triisopropyl-phenyl)-acetyl]-sulfamic acid 2,6-diisopropyl-4-(3-phenyl-ureido)-phenyl ester] | < 10
CC(C)c1cc(C(C)C)c(CC(=O)NS(=O)(=O)Oc2c(C(C)C)cc(NC(=O)NC(C)(C)C)cc2C(C)C)c(C(C)C)c1 [Example 219, [(2,4,6-Triisopropyl-phenyl)-acetyl]-sulfamic acid 4-(3-tert-butyl-ureido)-2,6-diisopropyl-phenyl ester] | 15.2
